Among the test systems are Enterococcus sp. S13; Pseudomonas putida; Bacillus subtilis; Candida krusei NCPF 3876; Escherichia coli LEC001; Klebsiella pneumoniae M6; Staphylococcus aureus; Escherichia coli BL21.
What all share (experiment): ≥ marks a high value that may be exact or a test limit, other limits are often not marked, values filed in µg/mL are converted to µM
For assay [1], the system named is Bacillus magaterium AB90008.
Assay [2] deals with Candida tropicalis AY91009.
Assay [3] has as its system Enterobacter cloacae AB2010162.
Assay [4] deals with Escherichia coli DH5alpha.
The subject of assay [5] is Klebsiella oxytoca AB2010143.
The subject of assay [6] is Micrococcus luteus AB2010179.
Assay [7] relates to Salmonella enterica AB2010185.
Assay [8] concerns Staphylococcus aureus 16472.
In assay [9] the test system is Staphylococcus aureus AB94004.
Assay [10] relates to Candida albicans CIB 45437.
In assay [11] the test system is Escherichia coli ATCC 25922.
Assay [12] concerns Escherichia coli CIB 84492.
Assay [13] deals with Staphylococcus aureus ATCC 25923.
Assay [14] relates to Staphylococcus aureus CIB 85462.
In assay [15] the test system is Acinetobacter baumannii Ab11.
The subject of assay [16] is Acinetobacter baumannii CR17.
In assay [17] the test system is Acinetobacter baumannii CR86.
For assay [18], the system named is Acinetobacter baumannii ATCC 17978.
For assay [19], the system named is Acinetobacter baumannii AYE.
Assay [20] relates to Candida glabrata NCPF 8018.
The subject of assay [21] is Candida parapsilosis NCPF 3209.
Assay [22] has as its system Candida tropicalis NCPF 8760.
The subject of assay [23] is Escherichia coli NCTC 12923.
Assay [24] deals with Klebsiella pneumoniae NCTC 13368.
Assay [25] concerns Pseudomonas aeruginosa NCTC 13437.
In assay [26] the test system is Pseudomonas aeruginosa PAO1.
Assay [27] deals with Staphylococcus aureus ATCC 9144.
In assay [28] the test system is Staphylococcus aureus NCTC 13616.
Assay [29] deals with Staphylococcus aureus USA 300.
The test system of assay [30] is Escherichia coli ATCC 11303.
Assay [31] deals with Escherichia coli KpC+001812446.
The subject of assay [32] is Klebsiella pneumoniae ATCC 13883.
Assay [33] deals with Klebsiella pneumoniae KpC+001825971.
The subject of assay [34] is Staphylococcus aureus ATCC 259230.
The subject of assay [35] is Staphylococcus aureus ATCC 6538P.
Assay [36] has as its system Staphylococcus aureus ATCC BAA-41.
Assay [37] concerns Staphylococcus epidermidis.
For assay [38], the system named is Batrachochytrium dendrobatidis JEL-197.
For assay [39], the system named is Candida albicans ATCC 90028.
Assay [40] deals with Escherichia coli ATCC 25726.

In brackets after ≈: the same amount, converted by molar mass.

One may read the MIC as the lowest concentration that inhibits growth of the organism. Low readings indicate greater potency, high ones weaker potency. In the case of `CC[C@H](C)[C@H](NC(=O)CNC(=O)[C@H](CC(N)=O)NC(=O)[C@H](Cc1c[nH]c2ccccc12)NC(=O)[C@@H](NC(=O)[C@@H](NC(=O)[C@H](CO)NC(=O)[C@H](CC(C)C)NC(=O)[C@@H](N)Cc1ccccc1)[C@@H](C)O)[C@@H](C)CC)C(=O)N[C@@H](CCCCN)C(=O)N[C@@H](CO)C(=O)N[C@@H](CC(C)C)C(=O)N[C@@H](CC(C)C)C(=O)O` [FLSTIWNGIKSLL], the MIC in assay [1] is 6 µM (≈ 8.95 µg/mL); in assay [2] it was 17 µM (≈ 25.4 µg/mL); in assay [3], at least 87 µM; in the assay on Enterococcus sp. S13, 4 µM (≈ 5.97 µg/mL); in assay [4] it was at least 36 µM; in [5], at least 87 µM. For the same compound, the MIC in assay [6] was 8 µM (≈ 11.9 µg/mL); against Pseudomonas putida, at least 87 µM; in assay [7] it was at least 84 µM; in assay [8], 12 µM (≈ 17.9 µg/mL); in [9], 16 µM (≈ 23.9 µg/mL).

As to `CC[C@H](C)[C@H](NC(=O)CN)C(=O)N[C@@H](Cc1ccccc1)C(=O)NCC(=O)N[C@@H](CCCCN)C(=O)N[C@H](C(=O)N[C@@H](CC(C)C)C(=O)NCC(=O)N[C@@H](C)C(=O)NCC(=O)N[C@@H](CCCCN)C(=O)N[C@@H](CCCCN)C(=O)N[C@H](C(=O)N[C@@H](CC(C)C)C(=O)N[C@H]1CSSC[C@@H](C(=O)O)NC(=O)[C@H](CC(C)C)NC(=O)CNC(=O)[C@H](CO)NC(=O)[C@H](CC(C)C)NC(=O)CNC1=O)C(C)C)[C@@H](C)CC` [GIFGKILGAGKKVLCGLSGLC], the MIC in assay [10] is at least 62.9 µM; in assay [11] it was 15.7 µM (≈ 32 µg/mL); in assay [12] it was 15.7 µM (≈ 32 µg/mL); in assay [13] it was 15.7 µM (≈ 32 µg/mL); in assay [14], 7.86 µM (≈ 16 µg/mL).

Take `CC[C@H](C)[C@H](NC(C)=O)C(=O)N[C@@H](CC(N)=O)C(=O)N[C@@H](CC(C)C)C(=O)N[C@@H](CCCCN)C(=O)N[C@@H](C)C(=O)N[C@@H](CC(C)C)C(=O)N[C@@H](C)C(=O)N[C@@H](C)C(=O)N[C@@H](CC(C)C)C(=O)N[C@@H](C)C(=O)N[C@@H](CCCCN)C(=O)N[C@@H](CCCCN)C(=O)N[C@H](C(=O)N[C@@H](CC(C)C)C(N)=O)[C@@H](C)CC` [INLKALAALAKKIL]: the MIC is at least 42 µM in assay [15], 10.5 µM (≈ 16 µg/mL) in assay [16] and 21 µM (≈ 31.9 µg/mL) in assay [17].

For the compound `CC[C@H](C)[C@H](NC(=O)[C@@H](N)CCCCN)C(=O)N[C@@H](C)C(=O)N[C@@H](CCCCN)C(=O)N[C@H](C(=O)N[C@@H](C)C(=O)N[C@@H](CC(C)C)C(=O)N[C@@H](CCCCN)C(=O)N[C@@H](C)C(=O)N[C@@H](CC(C)C)C(N)=O)C(C)C` [KIAKVALKAL], the MIC was at least 121 µM in [18]; at least 121 µM in [19]; 13.7 µM (≈ 14.4 µg/mL) against Bacillus subtilis; at least 121 µM in [20]; at least 121 µM with Candida krusei NCPF 3876; at least 121 µM in assay [21]. Also, the MIC in assay [22] is at least 121 µM; in [11], 22.4 µM (≈ 23.6 µg/mL); against Escherichia coli LEC001 it was at least 121 µM; in [23] it was at least 121 µM; against Klebsiella pneumoniae M6, at least 121 µM; in assay [24], at least 121 µM. Besides, the MIC in assay [25] is at least 121 µM; in [26], over 121 µM; in [13], 8.25 µM (≈ 8.69 µg/mL); in [27] it was at least 121 µM; in [28], at least 121 µM; in assay [29], at least 121 µM. The compound further came in with an MIC against Staphylococcus aureus of 64.3 µM (≈ 67.7 µg/mL).

For the compound `CC[C@H](C)[C@H](NC(=O)[C@H](CCCCN)NC(=O)[C@H](CCCCN)NC(=O)[C@H](Cc1ccccc1)NC(=O)[C@H](CC(C)C)NC(=O)[C@H](CCCCN)NC(=O)[C@H](Cc1c[nH]c2ccccc12)NC(=O)[C@@H](N)CCCCN)C(=O)NCC(=O)N[C@@H](C)C(=O)N[C@H](C(=O)N[C@@H](CC(C)C)C(=O)N[C@@H](CCCCN)C(=O)N[C@H](C(=O)N[C@@H](CC(C)C)C(=O)O)C(C)C)C(C)C` [KWKLFKKIGAVLKVL], the MIC was at least 50 µM in [30]; 5 µM (≈ 8.86 µg/mL) in [11]; 0.707 µM (≈ 1.25 µg/mL) with Escherichia coli BL21; 5 µM (≈ 8.86 µg/mL) in assay [31]; at least 36 µM in assay [32]; 9 µM (≈ 15.9 µg/mL) in assay [33]. Moreover, the MIC was 2.83 µM (≈ 5.01 µg/mL) in assay [26]; at least 50 µM in assay [34]; 1 µM (≈ 1.77 µg/mL) in assay [35]; 1.41 µM (≈ 2.5 µg/mL) in [36]; 0.707 µM (≈ 1.25 µg/mL) in assay [37].

`CC[C@H](C)[C@H](NC(=O)[C@H](Cc1ccccc1)NC(=O)[C@H](CCCCN)NC(=O)[C@H](CCCCN)NC(=O)[C@H](C)NC(=O)[C@H](CC(C)C)NC(=O)[C@H](CC(N)=O)NC(=O)[C@@H](NC(=O)[C@H](CC(C)C)NC(=O)[C@@H](NC(=O)[C@H](CC(=O)O)NC(=O)[C@H](CC(C)C)NC(=O)[C@H](Cc1ccccc1)NC(=O)[C@@H](N)CC(N)=O)[C@@H](C)O)[C@@H](C)CC)C(N)=O` [NFLDTLINLAKKFI]: the MIC is 25 µM (≈ 41.2 µg/mL) in assay [38], at least 50 µM in assay [39], at least 100 µM in [40] and 50 µM (≈ 82.5 µg/mL) in [13].

These data come from DBAASP.
